Legend:
Swiss CD-1 mice [1] = tested on: Swiss CD-1 mice; set-up: method as in PMID 32535718; settings: 4 and 16 mg/kg subcutaneous injections; cited from earlier work
Swiss CD-1 mice [2] = experiment: Open-field (OF) test, center versus periphery (anxiety-like behavior); format: in vivo; settings: 10 mg/kg i.p.
Procedure: Male Swiss CD-1 mice (Janvier, Le Genest, France) weighing 30–35 g (6–8 weeks old), housed in temperature-controlled conditions (22 ± 1 °C) under a 12 h light/dark cycle and with free access to food and drinking water (standard laboratory diet, Panlab SL, Barcelona, Spain), were randomly assigned to an experimental group. Efforts were made to minimize animal use and suffering.
The anxiety-like effects of the test compounds were assessed through an OF test as described.[64] Animals were placed individually in the center of an open-field arena (25 cm length × 25 cm width × 40 cm height), and the time spent, in seconds, in the center (8 × 8 cm) or the periphery of the arena was monitored for 60 min (Smart 3.0 Panlab, Barcelona, Spain).

[3] = tested on: NGF-differentiated PC12 cells; experiment: Cytotoxicity in NGF-differentiated PC12 cells, WST-8 cell viability assay; format: cell-based; settings: WST-8, 0.01–8.00 mM, 24 h
Procedure: Pheochromocytoma cells (PC12) cells were cultured in collagen-coated dishes in DMEM supplemented with heat-inactivated 5% FBS, 10% horse serum, 10 mM HEPES, 2 mM glutamine, 25 UI/mL penicillin, and 25 μg/mL streptomycin (maintenance medium) and grown at 37 °C in a humidified 5% CO2 atmosphere. Cell differentiation was performed as described[54] with minor modifications. In brief, cells were seeded (250.000 cells/well) onto 96-well plates in the maintenance medium, and after 24 h, the medium was changed to a differentiation medium containing 50 ng/mL NGF. After 24 h, neurite outgrowth was already apparent.
Treatments with different concentrations of the drug in DMEM were performed 48 h after cell differentiation. 10 μL of the tested drug was added per well, in triplicate, and cells were incubated for 24 h at 37 °C in a humidified 5% CO2 atmosphere. Thereafter, the medium was removed and immediately replaced with a maintenance medium. 10 μL of the CCK-8 Cell Counting Kit, based on 2-(2-methoxy-4-nitrophenyl)-3-(4-nitrophenyl)-5-(2,4-disulfophenyl)-2H-tetrazolium, monosodium salt (WST-8), was added per well and was incubated for 2 h at 37 °C in a humidified 5% CO2 atmosphere. This method has been defined as a good alternative to the 3-(4,5-dimethylthiazol-2-yl)-2,5-diphenyltetrazoliumbromide (MTT) assay.[63] Optical density was measured at 450 nm, using a microplate reader.
For in vitro assays, data were normalized with 100% defined as the mean of the technical replicates in the control group and expressed as mean ± SEM. Nonlinear regression was used to fit the different competition curves. Data were plotted and best fitted to a sigmoidal dose–response curve from which an IC50 or LC50 value was obtained. Transporter ratios were calculated as (1/DAT IC50: 1/SERT IC50). Although IC50 values at inhibiting 5-HT uptake for some compounds tested are expressed as >100 μM for clarity purposes, DAT/SERT ratios were calculated with the original raw data. The Cheng–Prusoff equation was used to calculate Ki (affinity): Ki = EC50/(1 + [radioligand concentration/Kd]).[65] The sample size for behavioral experiments was determined using GPower software. One-way or two-way ANOVA, and subsequent Tukey’s posthoc test, conducted only if F was significant, was used to determine the effects of cathinones on cytotoxicity, HLA, OF, and CPP experiments. The α error probability was set at 0.05 (p < 0.05). The exact size group for the behavioral experiments is shown in the corresponding figure legends. All statistic calculations were carried out using GraphPad Prism (GraphPad software, San Diego, CA, USA).

Compound | CPP (Swiss CD-1 mice [1]) | anxiogenic effect in OF test (Swiss CD-1 mice [2]) | concentration at which cytotoxicity starts [3]
CCCCC(NCC)C(=O)c1ccccc1 (stereo not drawn) [NEH, N-ethyl-hexedrone] | significant CPP | acute anxiogenic effects | –
CCCCCC(NCC)C(=O)c1ccccc1 (stereo not drawn) [NEHP, N-ethyl-heptedrone] | – | – | 100 µM

— article PMC9936538, “Structure–Activity Relationship of N-Ethyl-Hexedrone Analogues: Role of the α-Carbon Side-Chain Length in the Mechanism of Action, Cytotoxicity, and Behavioral Effects in Mice” (ACS Chemical Neuroscience, 2023)
